Drawing on PubChem BioAssay (NCI), this text covers GI50 and TGI for 23 molecules.

SMILES strings stand for the structures. Values joined by “and” are separate entries in the source; they are usually repeats but may differ in a detail not shown here. Equal entries are not always repeated.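 96-well plates; 48 h exposure; 5 concentrations. Endpoints by linear interpolation between flanking doses. Not reached: highest tested concentration assigned. Abbreviation: GI50, concentration required for 50% inhibition of growth. TGI denotes the concentration required for complete inhibition of growth.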

Among the test systems are KM20L2 colon; SNB-78 CNS; DLD-1 colon; DMS 273 small cell lung; T-47D breast; HS 578T breast; M19-MEL melanoma; DMS 114 small cell lung.
Assay in all cases: NCI anticancer screen, dose series, 48 h

Regarding `O=c1cccccc1[O-].O=c1cccccc1[O-].O=c1cccccc1[O-].[La+3]`, the GI50 in the assay on KM20L2 colon was 17 µM; with SNB-78 CNS, 10.5 µM; in the assay with DLD-1 colon, 22.7 µM; in the assay on DMS 273 small cell lung, 5.98 µM. In addition, the TGI is above 100 µM with KM20L2 colon, 86.9 µM with SNB-78 CNS, above 100 µM with DLD-1 colon and above 100 µM in the assay on DMS 273 small cell lung.
Take `Cn1cc(-c2ccc(-c3ccc(C4=NC5(CC5)C(=O)N4C[C@@H]4CCN(C(=O)C5CC5)C4)cc3)cc2)cn1`: the GI50 was 13.6 µM in the assay with T-47D breast and 19.2 µM in the assay with HS 578T breast. The TGI in the assay on T-47D breast is above 100 µM; with HS 578T breast, 84.1 µM.
As to `O=c1c(-c2ccccc2)coc2cc(OC/C(=N/O)c3ccccc3)ccc12`, in the assay on T-47D breast, the GI50 is 15.3 µM and the TGI is 96.7 µM. For the same molecule, in the assay with HS 578T breast, the GI50 was 34.4 µM and the TGI was determined as 86 µM.
For `CC12CCC(Br)C(C)(C)C1CC=C1C(=O)OCC1O2` (stereo not drawn), the values for the TGI with T-47D breast and in the assay with HS 578T breast were 45 µM and 55 µM, respectively.
As to `NC(N)=NS(=O)(=O)c1ccc(NCCc2c3ccccc3nc3ccccc23)cc1`, the TGI in the assay on KM20L2 colon, in the assay with M19-MEL melanoma, in the assay on DMS 114 small cell lung, with DLD-1 colon and in the assay on DMS 273 small cell lung was above 100 µM throughout.
For `C[N+]1=C(/C=C\C=C\c2ccccc2)C(C)(C)c2ccccc21`, in the assay with T-47D breast, the GI50 was 0.966 µM and the TGI was 5.36 µM. For the same molecule, in the assay on HS 578T breast, the GI50 is 4.6 µM and the TGI was found to be 22.4 µM.
Turning to `COc1ccc2c(c1)C(=O)c1c-2n(CCCI)c(=O)c2cc([N+](=O)[O-])ccc12`, the GI50 in the assay with T-47D breast is 0.173 µM and 0.163 µM; in the assay with HS 578T breast, 7.67 µM and 3.85 µM. Also, the TGI with T-47D breast was 1.65 µM and 8.64 µM; in the assay with HS 578T breast, 31.2 µM and 35.3 µM.
As to `CCN1CCN(CC(=O)N2c3cccc4cccc(c34)N(C(=O)CN3CCN(CC)CC3)C2c2cn(-c3ccccc3)nc2-c2cccc([N+](=O)[O-])c2)CC1`, the values for the GI50 with T-47D breast and in the assay on HS 578T breast were 1.66 µM and 1.81 µM, respectively. Further, the TGI in the assay on T-47D breast was determined as 3.7 µM; with HS 578T breast, 4.17 µM.
For the molecule `COc1cc(-c2nc(SCCC(C)C)nc(Nc3ccc(S(N)(=O)=O)cc3)c2C#N)cc(OC)c1OC`, in the assay with T-47D breast, the GI50 was 2.26 µM and the TGI is above 100 µM. In the assay on HS 578T breast, the GI50 is 2.21 µM and the TGI was 7.77 µM.
As for `Cc1cc(N2CCOCC2)cc2[nH]c(-c3c(NC[C@@H](O)c4cccc(Cl)c4)cc[nH]c3=O)nc12`, the GI50 with T-47D breast is 4.17 µM; in the assay on HS 578T breast it was 1.04 µM. The TGI in the assay on T-47D breast was 37.8 µM; with HS 578T breast, 4.42 µM.
As for `Cc1ncc(C(=O)Nc2ccc(CN3CCN(C)CC3)c(C(F)(F)F)c2)cc1C#Cc1cnc(N)cc1C#N`, the GI50 was above 16.7 µM with T-47D breast and 0.204 µM with HS 578T breast. For the same molecule, the TGI in the assay with T-47D breast is above 16.7 µM; in the assay with HS 578T breast, 1.72 µM.
In the case of `O=C(OC[C@H]1O[C@H](OC(=O)c2cc(O)c(O)c(OC(=O)c3cc(O)c(O)c(O)c3)c2)[C@H](OC(=O)c2cc(O)c(O)c(OC(=O)c3cc(O)c(O)c(O)c3)c2)[C@@H](OC(=O)c2cc(O)c(O)c(OC(=O)c3cc(O)c(O)c(O)c3)c2)[C@@H]1OC(=O)c1cc(O)c(O)c(OC(=O)c2cc(O)c(O)c(O)c2)c1)c1cc(O)c(O)c(OC(=O)c2cc(O)c(O)c(O)c2)c1`, in the assay with T-47D breast, the GI50 is 2.85 µM and the TGI was 16.6 µM. Moreover, in the assay on HS 578T breast, the GI50 is 10.3 µM and the TGI is above 25 µM.
On to `COC(=O)CC[C@H](Cc1ccccc1)NC(=O)c1csc([C@@H](C[C@H](C(C)C)N(C)C(=O)[C@@H](NC(=O)[C@H]2CCCCN2C)C(C)C)OC(C)=O)n1`, for which, in the assay with HS 578T breast, the GI50 was below 0.0025 µM and the TGI is above 25 µM.
`COc1ccc(OCC(=O)O)c(C(=O)CCC(=O)O)c1`: the TGI in the assay on SNB-78 CNS, with M19-MEL melanoma, in the assay with DMS 114 small cell lung, in the assay with DLD-1 colon and in the assay with DMS 273 small cell lung was above 100 µM in each case.
Consider `Cc1cnc(C(=O)Nc2nc3ccc(S(=O)(=O)Nc4ccc(C5(C(F)(F)F)CC5)cc4)cc3[nH]2)cn1`, for which, in the assay with T-47D breast, the GI50 is 0.596 µM and the TGI was determined as 17.2 µM. In the assay on HS 578T breast, the GI50 is 0.367 µM and the TGI is 6.54 µM.
In the case of `CCCCCCCc1cc2c3c(nc4ccccc42)C(=O)c2cccnc2-c3n1`, in the assay with T-47D breast, the GI50 was 4.31 µM and the TGI was determined as 20.7 µM. Further, in the assay on HS 578T breast, the GI50 was 4.86 µM and the TGI is 11.6 µM.
The matching figures for `O=C1CCc2c(sc3[nH]c(=S)n(Cc4ccc(Cl)cc4)c(=O)c23)C1`: 0.377 µM, 3.59 µM, 0.46 µM and above 100 µM.
Take `CSc1nc(SC)c2c(CO)c(Br)n(Cc3ccccc3)c2n1`: the TGI in the assay with T-47D breast worked out at 74.2 µM; in the assay with HS 578T breast it was 58.9 µM.
With `O=C(/C=C/c1ccc(C(F)(F)F)cc1)c1ccc(Nc2nc(NCCO)nc(Nc3ccc(Cl)cc3)n2)cc1`, the figures for the GI50 in the assay with T-47D breast and with HS 578T breast were 3.4 µM and 2.82 µM, respectively. For the same molecule, the TGI in the assay on T-47D breast amounted to 26.6 µM; in the assay with HS 578T breast, 15.6 µM.
For the molecule `COC(=O)/C=C/c1cc2c(cc1-c1c(C(=O)O)cc(OC)c(OC)c1OC)OCO2`, the TGI in the assay on T-47D breast and with HS 578T breast was above 10 µM in each case.
On to `O=C1C[C@@H]2/C(=C(O)\C=C\c3ccccc3)C(=O)C=C[C@@H]2O1`, for which the values for the GI50 in the assay with T-47D breast and in the assay with HS 578T breast were 0.905 µM and 5.27 µM, respectively. Moreover, the TGI stood at 4.55 µM in the assay on T-47D breast and 60.5 µM in the assay on HS 578T breast.
For `O=C1c2ccccc2S(=O)(=O)c2cc(-c3nn[nH]n3)ccc21`, the TGI in the assay with T-47D breast and in the assay on HS 578T breast was above 100 µM each time.
As to `OCC#Cc1ccccc1C#CCCCCCC#Cc1ccccc1C#CCO`, in the assay with T-47D breast, the GI50 was 16.9 µM and the TGI was found to be 32.3 µM. Moreover, in the assay with HS 578T breast, the GI50 is 21.7 µM and the TGI was determined as 43.7 µM.
